Measured values as given in article PMC6222672, “Pharmacokinetic and Metabolism Studies of 12-Riboside-Pseudoginsengenin DQ by UPLC-MS/MS and UPLC-QTOF-MS^E” (Molecules : A Journal of Synthetic Chemistry and Natural …, 2018).
“Also recorded” adds a separate entry of the source. Like-named read-outs stand apart in the source and are kept apart here.

Experiments:
[1] = assay type: in vitro ADME; conditions: rat
Protocol: RPDQ and 20R-panaxadiol stock methanol solutions (1.00 mg/mL) were all prepared with the reference compounds, respectively. Firstly, blank rat plasma was prepared. The blood samples were collected immediately from the abdominal aorta and incubated at 37 °C for 30 min. The plasma was separated by centrifugation at 4000 rpm for 15 min, and was frozen at −20 °C until analysis. By spiking the dilute solutions with blank rat plasma, calibration curves were plotted to produce the points equivalent to 5, 10, 25, 50, 100, 300, 500, and 1000 ng/mL for RPDQ. […] All the QC and calibration standards samples were prepared freshly before analysis. The specificity, linearity, LLOQ, precision and accuracy, extraction recovery, matrix effect, diluted reliability, and stability of the method were validated by following a non-clinical drug pharmacokinetic study technical guideline (China Food And Drug Administration 2014) and the Bioanalytical Method Validation Guideline (Chinese Pharmacopoeia 2015, Vol. 4). Specificity was assessed by comparing blank plasma samples, plasma was spiked with RPDQ and 20R-panaxadiol, and plasma samples were collected after administration. Linearity was analyzed through weighted regression (1/x^2) of peak area ratios (y) of RPDQ to 20R-panaxadiol versus nominal concentration (x) in plasma. […] The intra- and inter-day precision and accuracy were evaluated with the analysis of six replicate QC samples on three consecutive days, respectively. The extraction recovery and matrix effect at three QC concentrations were assayed. By comparing peak areas of RPDQ and 20R-panaxadiol in extracted QC samples with those in post-extracted blank plasma samples, the recoveries were calculated. Moreover, by comparing the peak area of samples spiked after extraction with that of the neat solution’s equivalent concentration, the matrix effect was then evaluated. Stability was evaluated by analyzing replicate QC samples, which were stored at −20 °C for two weeks at room temperature for 4 h, and experienced three freeze/thaw cycles (from −20 °C to room temperature) on consecutive days. The stabilities of RPDQ in stock solutions at 15 °C and stored in plastic autosampler vials for 16 h at 10 °C were also assessed. Five-fold higher concentrations of QC were achieved by adding moderate RPDQ to blank plasma. The samples were then diluted and analyzed with undiluted calibration standards. The accuracy and precision were within acceptable limits (± 15%).

S180 cells = test: MTT cell viability test, S180 cells; assay type: cell-based; conditions: 1-200 μM, 44 h
Excerpt: (§1) Antitumor activity test of RPDQ in vitro by using S180, SPC-A-1 and A549 cells
(§2) Since the startmaterial for the semi-synthesis of 12-Riboside-pseudoginsengenin DQ (RPDQ) was pseudoginsengenin DQ (PDQ), the antitumor activities of RPDQ […]
(§3) and PDQ were both tested.
(§4) The SPC-A-1 and S180 tumor cell lines were purchased from Wuhan Procell Life Science & Technology Co,.Ltd. A549 tumor cell lines were purchased from iCell Bioscience Inc (Shanghai) Biological Co., Ltd.
(§5) 2. Experimental procedure
(§6) S180 cells (1 × 10^5 cells/mL) were seeded into a 96-well plate. After 24 h, pretreated with various concentrations of RPDQ or PDQ (1-200 μM) for 44 h at 37℃, and the cells were treated with MTT for 4 h. The formazan crystal product in the cells were dissolved with acid isopropanol. The absorbance was measured at 570 nm with a […]
(§7) SPC-A-1/A549 cells(1×10^5 cells/mL) were seeded into a 96-well plate. After 24 h, pretreated with various concentrations of RPDQ or PDQ (1-200 μM) for 44 h at 37℃ , and the cells were treated with MTT for 4 h. […] The absorbance was measured at 490 nm with a […]
(§8) Cell viability was calculated by the following formula: Cell viability (%)= 1-{(ODcontrolgroup-ODtreatedgroup)/ODcontrol group×100%}.
(§9) All data were processed by statistical software SPSS 17.0. The data were expressed as Mean ± Standard Deviation. The differences between groups were analyzed by one-way analysis of variance. […]

SPC-A-1 cells = test: MTT cell viability test, SPC-A-1 cells; assay type: cell-based; conditions: 1-200 μM, 44 h
Excerpt: as §1, §2, §3, §4, §5, §6, §7, §8, §9

In the case of `CC(C)(O)[C@@H]1CC[C@@](C)([C@H]2CC[C@]3(C)[C@@H]2[C@H](O[C@@H]2O[C@H](CO)[C@@H](O)[C@H]2O)C[C@@H]2[C@@]4(C)CC[C@H](O)C(C)(C)[C@@H]4CC[C@]23C)O1` [RPDQ, 20S, 24S-12-O-β-D-ribofuranosyl-dammar-20, 24-epoxy-3β, 12β, 25-triol], the Mean concentration ([1]; 15 ng/mL) is reported as 0.01496 ± 0.00058 µg/mL, the Mean concentration ([1]; 200 ng/mL) is reported as 0.1887 ± 0.01657 µg/mL and the Mean concentration ([1]; 800 ng/mL) is reported as 0.78521 ± 0.01919 µg/mL. It also gave an Accuracy ([1]; 3 freeze-thaw cycles, 800 ng/mL) of −1.85%, an Accuracy ([1]; 3 freeze/thaw cycles, 15 ng/mL) of −0.03% and an Accuracy ([1]; 3 freeze/thaw cycles, 200 ng/mL) of −5.65%. It also gave an Accuracy ([1]; 4 h, 15 ng/mL) of −1.00%, a Mean concentration ([1]; 4 h, 15 ng/mL) of 0.01485 ± 0.00072 µg/mL and an Accuracy ([1]; 4 h, 200 ng/mL) of −5.94%. The Mean concentration ([1]; 4 h, 200 ng/mL) was 0.18812 ± 0.014 µg/mL, the Accuracy ([1]; 4 h, 800 ng/mL) was −3.25% and the Mean concentration ([1]; 4 h, 800 ng/mL) was 0.77399 ± 0.02601 µg/mL. It also gave an Accuracy ([1]; 16 h, 15 ng/mL) of 2.2%, a Mean concentration ([1]; 16 h, 15 ng/mL) of 0.01533 ± 0.00161 µg/mL and an Accuracy ([1]; 16 h, 200 ng/mL) of −6.52%. For the same compound, the Mean concentration ([1]; 16 h, 200 ng/mL) was 0.18696 ± 0.01341 µg/mL, the Accuracy ([1]; 16 h, 800 ng/mL) was 2.03% and the Mean concentration ([1]; 16 h, 800 ng/mL) was 0.81623 ± 0.01582 µg/mL. It also gave an Accuracy ([1]; 14 d, 15 ng/mL) of 2.74%, a Mean concentration ([1]; 14 d, 15 ng/mL) of 0.01541 ± 0.00147 µg/mL and an Accuracy ([1]; 14 d, 200 ng/mL) of −10.47%. For the same compound, the Mean concentration ([1]; 14 d, 200 ng/mL) was 0.17907 ± 0.01473 µg/mL, the Accuracy ([1]; 14 d, 800 ng/mL) was −1.71% and the Mean concentration ([1]; 14 d, 800 ng/mL) was 0.78632 ± 0.01988 µg/mL. The “anticancer / anti-proliferation effect” value (S180 cells) was “good anti-proliferation effects; also recorded: significant anticancer activity” and the “anticancer / anti-proliferation effect” value (SPC-A-1 cells) was “good anti-proliferation effects; also recorded: significant anticancer activity”.
